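Exposure lasted 48 hours, with cells grown in 96-well plates and compounds tested at five concentrations. TGI marks complete inhibition of growth.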
Tests used:
Test in all cases: inhibition of tumour cell growth, NCI panel, 48 h
786-0 renal = system: 786-0 renal
A498 renal = system: A498 renal
A549 NSCLC = system: A549 NSCLC
ACHN renal = system: ACHN renal
BT-549 breast = system: BT-549 breast
CAKI-1 renal = system: CAKI-1 renal
CCRF-CEM leukemia = system: CCRF-CEM leukemia
COLO 205 colon = system: COLO 205 colon
DU-145 prostate = system: DU-145 prostate
EKVX NSCLC = system: EKVX NSCLC
HCC-2998 colon = system: HCC-2998 colon
HCT-116 colon = system: HCT-116 colon
HCT-15 colon = system: HCT-15 colon
HL-60(TB) leukemia = system: HL-60(TB) leukemia
HOP-62 NSCLC = system: HOP-62 NSCLC
HOP-92 NSCLC = system: HOP-92 NSCLC
HS 578T breast = system: HS 578T breast
HT29 colon = system: HT29 colon
IGROV1 ovarian = system: IGROV1 ovarian
K-562 leukemia = system: K-562 leukemia
KM12 colon = system: KM12 colon
LOX IMVI melanoma = system: LOX IMVI melanoma
MALME-3M melanoma = system: MALME-3M melanoma
MCF7 breast = system: MCF7 breast
MDA-MB-231 breast = system: MDA-MB-231 breast
MDA-MB-435 = system: MDA-MB-435
MDA-N = system: MDA-N
MOLT-4 leukemia = system: MOLT-4 leukemia
NCI-H226 lung = system: NCI-H226 lung
NCI-H23 lung = system: NCI-H23 lung
NCI-H460 lung = system: NCI-H460 lung
NCI-H522 lung = system: NCI-H522 lung
NCI/ADR-RES ovarian = system: NCI/ADR-RES ovarian
OVCAR-3 ovarian = system: OVCAR-3 ovarian
OVCAR-4 ovarian = system: OVCAR-4 ovarian
OVCAR-5 ovarian = system: OVCAR-5 ovarian
OVCAR-8 ovarian = system: OVCAR-8 ovarian
PC-3 prostate = system: PC-3 prostate
RPMI-8226 leukemia = system: RPMI-8226 leukemia
RXF 393 renal = system: RXF 393 renal
SF-268 CNS = system: SF-268 CNS
SF-295 CNS = system: SF-295 CNS
SF-539 CNS = system: SF-539 CNS
SK-MEL-28 melanoma = system: SK-MEL-28 melanoma
SK-MEL-5 melanoma = system: SK-MEL-5 melanoma
SK-OV-3 ovarian = system: SK-OV-3 ovarian
SN12C renal = system: SN12C renal
SR leukemia = system: SR leukemia
SW-620 colon = system: SW-620 colon
T-47D breast = system: T-47D breast
TK-10 renal = system: TK-10 renal
U251 CNS = system: U251 CNS
UACC-257 melanoma = system: UACC-257 melanoma
UACC-62 melanoma = system: UACC-62 melanoma
UO-31 renal = system: UO-31 renal
M14 melanoma = system: M14 melanoma
SK-MEL-2 melanoma = system: SK-MEL-2 melanoma
SNB-75 CNS = system: SNB-75 CNS

Measured: TGI

COc1ccc(C2=Nn3c(nc4sc5c(c4c3=O)CCCC5)SC2)cc1
not listed: M14 melanoma | SK-MEL-2 melanoma | SNB-75 CNS
> 100 µM: all other assays above

C[C@]12CC[C@@H]3c4cc(C=O)c(OCc5ccccc5)cc4CC[C@H]3[C@@H]1CCC2OCc1ccccc1 (stereo partly specified)
not listed: IGROV1 ovarian | MALME-3M melanoma
> 100 µM: all other assays above
